IC50 data for ten molecules are collected here from patent publication US20230167127A1, “COMPOUNDS AND THEIR USE IN THE TREATMENT OF BACTERIAL INFECTION” (Hoffmann-La Roche Inc., priority 2020, published 2023).

As usually defined, the IC50 is the point on the concentration scale where inhibition reaches its midpoint.

One experiment relates to Escherichia coli ATCC 25922. Description: 50% growth inhibitory concentration (IC50) determination, Iso-Sensitest broth dilution. Type of experiment: cell-based. To be noted: Escherichia coli, ATCC25922, 16 h, strain Escherichia coli ATCC 25922; 10-point broth dilution, optical density at 600 nm over 16 h; read-out: Escherichia coli growth inhibition IC50. In short, it runs like this:
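Growth was tracked as optical density at 600 nm every 20 minutes for 16 h at 35±2° C. Compounds from DMSO stocks were serially diluted twofold over 10 points (e.g. 50–0.097 μM final) in Iso-Sensitest broth. Inhibition computed in log-phase growth to give IC50.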
For the molecule `NC1c2cccc(Cl)c2CC1CNCCc1nn(-c2ccc3c(c2)NC(=O)CO3)c(=O)o1` (racemic) [Example 147, 6-[2-oxo-5-[2-[[rac-1,2-trans-1-amino-4-chloro-2,3-dihydro-1H-inden-2-yl]methylamino]ethyl]-1,3,4-oxadiazol-3-yl]-4H-1,4-benzoxazin-3-one; formic acid], the IC50 is below 97.7 nM.

For `COc1ncc(F)c2c1CC(CNCCC1CN(c3cnc4c(n3)NC(=O)CO4)C(=O)O1)C2` (stereo not shown) [Example 71, 6-[5-[2-[(4-fluoro-1-methoxy-6,7-dihydro-5H-cyclopenta[c]pyridin-6-yl)methylamino]ethyl]-2-oxo-oxazolidin-3-yl]-4H-pyrazino[2,3-b][1,4]oxazin-3-one], the IC50 was below 97.7 nM.

Take `CNC(=O)COc1cc(C)c2c(c1C)CC(CNCCC1CN(c3ccc4c(n3)NC(=O)CS4)C(=O)O1)C2` (stereo not shown) [Example 114, 2-[[4,7-dimethyl-2-[[2-[2-oxo-3-(3-oxo-4H-pyrido[3,2-b][1,4]thiazin-6-yl)-1,3-oxazolidin-5-yl]ethylamino]methyl]-2,3-dihydro-1H-inden-5-yl]oxy]-N-methylacetamide]: the concentration for half-maximal inhibition (IC50) amounted to 217 nM.

With `Cc1nc(OCCCS(C)(=O)=O)c(C)c2c1CC(CNCCC1CN(c3ccc4c(n3)NC(=O)CO4)C(=O)O1)C2` (stereo not shown) [Example 105, 6-[5-[2-[[1,4-dimethyl-3-(3-methylsulfonylpropoxy)-6,7-dihydro-5H-cyclopenta[c]pyridin-6-yl]methylamino]ethyl]-2-oxo-1,3-oxazolidin-3-yl]-4H-pyrido[3,2-b][1,4]oxazin-3-one], the IC50 was 1110 nM.

`Cc1nnc(C)c2c1CC(CNCCC1CN(c3ccc4c(n3)NC(=O)CO4)C(=O)O1)C2` (stereo not shown) [Example 284, 6-[5-[2-[(1,4-dimethyl-6,7-dihydro-5H-cyclopenta[d]pyridazin-6-yl)methylamino]ethyl]-2-oxo-1,3-oxazolidin-3-yl]-4H-pyrido[3,2-b][1,4]oxazin-3-one]: the concentration for half-maximal inhibition (IC50) amounted to 1270 nM.

On to `CC(N)COc1cc(C#N)c2c(c1)CC(CNCCC1CN(c3ccc4c(n3)NC(=O)CO4)C(=O)O1)C2` (stereo not shown) [Example 192, 6-(2-aminopropoxy)-2-[[2-[2-oxo-3-(3-oxo-4H-pyrido[3,2-b][1,4]oxazin-6-yl)-1,3-oxazolidin-5-yl]ethylamino]methyl]-2,3-dihydro-1H-inclene-4-carbonitrile; 2,2,2-trifluoroacetic acid], for which the IC50 is below 97.7 nM.

For `Cc1ccnc2c1CC(NCCCC1CN(c3ccc4c(n3)NC(=O)CO4)C(=O)O1)C2` (stereo not shown) [Example 27, 6-[5-[3-[(4-methyl-6,7-dihydro-5H-cyclopenta[b]pyridin-6-yl)amino]propyl]-2-oxo-1,3-oxazolidin-3-yl]-4H-pyrido[3,2-b][1,4]oxazin-3-one], the IC50 worked out at 582 nM.

In the case of `CNC(=O)COc1ccc2c(c1C#N)CC(CNCCC1CN(c3ccc4c(n3)NC(=O)CO4)C(=O)O1)C2` (stereo not shown) [Example 48, 2-[[4-cyano-2-[[2-[2-oxo-3-(3-oxo-4H-pyrido[3,2-b][1,4]oxazin-6-yl)-1,3-oxazolidin-5-yl]ethylamino]methyl]-2,3-dihydro-1H-inden-5-yl]oxy]-N-methylacetamide], the IC50 came out at 106 nM.

In the case of `Cc1ncc(F)c2c1CC(NCCCc1cn(-c3cnc4c(n3)NC(=O)CO4)c(=O)o1)C2` (stereo not shown) [Example 302, 6-[5-[3-[(4-Fluoro-1-methyl-6,7-dihydro-5H-cyclopenta[c]pyridin-6-yl)amino]propyl]-2-oxo-1,3-oxazol-3-yl]-4H-pyrazino[2,3-b][1,4]oxazin-3-one; formic acid], the IC50 was below 97.7 nM.

The same experiment, now with this note: strain Escherichia coli ATCC 25922; 10-point broth dilution, optical density at 600 nm over 16 h; read-out: Escherichia coli growth inhibition IC50.
For `Cc1ncc(F)c2c1CC(NCCCc1cn(-c3cnc4c(n3)NC(=O)CO4)c(=O)o1)C2` (single isomer, unassigned; enantiomer b) [Example 368, 6-[5-[3-[(4-Fluoro-1-methyl-6,7-dihydro-5H-cyclopenta[c]pyridin-6-yl)amino]propyl]-2-oxo-1,3-oxazol-3-yl]-4H-pyrazino[2,3-b][1,4]oxazin-3-one, Enantiomer B], the IC50 is below 97.7 nM.
